Data on ten compounds can be found in publication PMC9860728, “Identification of New N-methyl-piperazine Chalcones as Dual MAO-B/AChE Inhibitors” (Pharmaceuticals, 2023).

Broadly, the IC50 is the concentration needed to halve the response being measured. Usually Ki stands for a measure of affinity in units of concentration, obtained from inhibition or displacement.

Data set [1] has as its target T1, AChE (Electrophorus electricus, UniProt O42275). The experiment in a line: AChE inhibition assay (Ellman method, ATCI). The class given is biochemical. The note with it: for remaining activity at 10 µM: 10 μM compound, read-out: Residual Activities at 10 μM (%) AChE; for SI (ChE): AChE selectivity over BChE, based on IC50 values. As for the experimental part:
(§1) For measuring cholinesterase (ChE) activity, the Ellman method was employed with a slight modification. The AChE and BchE with ~0.02 U/mL were reacted with 0.5 mM ATCI and BTCI, respectively, followed by addition of 0.5 mM DTNB. […] In the inhibition assay, the enzyme and the compound were preincubated in reaction buffer for 15 min, followed by adding substrates and DTNB.

The nature of data set [2]: Cytotoxicity MTT assay on normal Vero cells. The conditions noted are these: African green monkey. How it is done: The reference compound staurosporine was purchased from Sigma-Aldrich (Saint Louis, MO, USA). […] CellTiter 96® Non-Radioactive Cell Proliferation Assay (MTT) reagent was purchased from Promega (Cat# G4000). The normal Vero cell line was purchased from ATCC. Normal Vero cells were cultured with EMEM medium plus 10% FBS. In total, 100 µg/mL penicillin and 100 µg/mL streptomycin were added to the culture media.
The test compounds (100 nL) and staurosporine (25 nL) were delivered from the source plate to the wells of 384-well cell culture plates by Echo 550 Liquid Handler. […] MTT Dye Solution (8 µL) was added to each well, and the plates were incubated at 37 °C in a CO2 incubator for 6 h. After incubation, the formazan was produced in the cells. Solubilization/Stop Solution (30 µL) was added to each well and the plates were incubated for another 1 h at 37 °C in a CO2 incubator to dissolve the formazan crystals. […] The IC50 curves were plotted, and the IC50 values were calculated using the GraphPad Prism 4 program based on a sigmoidal dose–response equation.

Data set [3] addresses T2, MAO-B (Homo sapiens, UniProt P27338).
T2 construct: purchased Sigma Aldrich
T2 sequence (P27338 1-520): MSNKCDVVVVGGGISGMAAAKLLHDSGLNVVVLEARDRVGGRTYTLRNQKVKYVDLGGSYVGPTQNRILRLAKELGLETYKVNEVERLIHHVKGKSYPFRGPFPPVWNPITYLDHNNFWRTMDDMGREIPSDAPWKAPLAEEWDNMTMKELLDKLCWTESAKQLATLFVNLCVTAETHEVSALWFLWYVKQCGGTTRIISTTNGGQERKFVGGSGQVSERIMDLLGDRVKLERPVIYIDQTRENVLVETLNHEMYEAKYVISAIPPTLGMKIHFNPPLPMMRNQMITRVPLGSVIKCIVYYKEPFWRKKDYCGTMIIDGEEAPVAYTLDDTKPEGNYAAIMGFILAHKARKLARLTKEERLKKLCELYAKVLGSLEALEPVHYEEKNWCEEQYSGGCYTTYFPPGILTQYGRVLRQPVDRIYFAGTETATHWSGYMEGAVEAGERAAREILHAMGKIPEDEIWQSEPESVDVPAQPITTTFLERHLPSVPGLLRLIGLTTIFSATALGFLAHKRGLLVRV
Nature of the data set: Reversibility test for MAO-B using dialysis method. It is filed as biochemical. The conditions noted are these: for Residual activity of MAO-B after dialysis: after dialysis for 6 h, inhibitor at ~2 × IC50. How it is done: Reversibility of the compounds for MAO-B was measured using the dialysis method. […] The reaction mixture was placed in a dialysis tube (DiaEasyTM Dialyzer (800 µL) MWCO 6–8 kDa, Biovision, CA, USA) and dialyzed for 6 h. After that, the 0.3 mM of benzylamine was added into the reaction mixture for measuring enzyme activity. The relative activity to the control (without inhibitors) before and after dialysis was calculated, respectively.

For data set [4], the target named is T1, AChE. Nature of the data set: AChE inhibition kinetics (Lineweaver–Burk and secondary plots). It is filed as biochemical.
A further data set concerns the target BChE (Equus caballus, UniProt P81908). The experiment in a line: biochemical. The conditions noted are these: for remaining activity at 10 µM: read-out: Residual Activities at 10 μM (%) BChE. As for the experimental part:
as §1

For a further data set, the target named is T3, MAO-A (Homo sapiens, UniProt P21397).
T3 construct: purchased Sigma Aldrich
T3 sequence (P21397 1-527): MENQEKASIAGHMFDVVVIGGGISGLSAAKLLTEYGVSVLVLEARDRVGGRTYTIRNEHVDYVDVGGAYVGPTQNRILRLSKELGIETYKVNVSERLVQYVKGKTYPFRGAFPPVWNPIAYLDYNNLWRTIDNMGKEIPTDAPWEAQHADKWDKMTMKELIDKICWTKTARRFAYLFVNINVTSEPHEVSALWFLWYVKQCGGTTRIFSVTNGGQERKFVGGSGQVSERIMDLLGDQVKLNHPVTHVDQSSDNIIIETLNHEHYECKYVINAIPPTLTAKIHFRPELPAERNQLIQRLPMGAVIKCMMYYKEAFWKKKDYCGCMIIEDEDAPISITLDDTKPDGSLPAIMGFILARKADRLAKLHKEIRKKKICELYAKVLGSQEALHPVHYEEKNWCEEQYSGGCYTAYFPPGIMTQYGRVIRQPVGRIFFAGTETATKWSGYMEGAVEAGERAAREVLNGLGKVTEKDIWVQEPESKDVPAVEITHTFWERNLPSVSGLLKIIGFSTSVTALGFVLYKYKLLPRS
The experiment in a line: MAO-A enzyme inhibition assay (kynuramine substrate). The note with it: mean ± SD; for remaining activity at 10 µM: 10 μM compound, read-out: Residual Activities at 10 μM (%) MAO-A. It is filed as biochemical. As for the experimental part:
(§2) MAO assays were performed as described previously, i.e., ~0.09 U/mL of MAO-A and MAO-B were reacted with 0.06 mM kynuramine and 0.3 mM benzylamine, respectively, in 50 mM sodium phosphate (pH 7.2). […] For inhibition assay, the compounds were dissolved in DMSO and added into the reaction mixture. The final concentration of DMSO in the reaction mixture was less than 1% to avoid solvent disturbance.

Data set [5] concerns the target T2, MAO-B. The experiment in a line: MAO-B enzyme inhibition assay (benzylamine substrate). The class given is biochemical. The conditions noted are these: for remaining activity at 10 µM: 10 μM compound, read-out: Residual Activities at 10 μM (%) MAO-B; for remaining activity at 10 µM / IC50: mean ± SD; for SI (MAO): MAO-B selectivity over MAO-A, based on IC50 values. As for the experimental part: as §2

Data set [6] deals with T1, AChE. The conditions noted are these: read-out: Ki AChE; morpholine-based chalcones; cited from earlier work.
Data set [7] has as its target T2, MAO-B. The conditions noted are these: MAO-B selectivity over MAO-A; cited from earlier work.
[8] abbreviates: read-out: Residual activity of MAO-B before dialysis.

Read-outs that look alike come from different tables or passages of the source. Some results are limits rather than exact numbers.

Chain of BChE (P81908 whole entry): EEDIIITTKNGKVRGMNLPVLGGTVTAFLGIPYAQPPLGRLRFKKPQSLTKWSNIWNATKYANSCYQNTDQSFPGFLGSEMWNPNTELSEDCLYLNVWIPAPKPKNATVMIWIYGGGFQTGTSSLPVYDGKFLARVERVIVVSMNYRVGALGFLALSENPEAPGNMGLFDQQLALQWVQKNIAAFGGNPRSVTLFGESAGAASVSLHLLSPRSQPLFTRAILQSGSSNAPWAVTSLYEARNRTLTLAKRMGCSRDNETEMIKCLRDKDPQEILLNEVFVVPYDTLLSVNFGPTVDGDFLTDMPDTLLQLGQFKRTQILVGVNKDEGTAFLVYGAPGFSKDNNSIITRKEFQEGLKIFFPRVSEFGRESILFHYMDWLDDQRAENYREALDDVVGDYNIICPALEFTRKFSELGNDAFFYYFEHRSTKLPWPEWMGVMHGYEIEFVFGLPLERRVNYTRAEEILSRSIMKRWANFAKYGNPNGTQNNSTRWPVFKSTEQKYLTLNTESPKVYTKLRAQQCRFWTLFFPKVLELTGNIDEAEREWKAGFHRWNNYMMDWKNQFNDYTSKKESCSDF
T1 sequence (O42275 24-633): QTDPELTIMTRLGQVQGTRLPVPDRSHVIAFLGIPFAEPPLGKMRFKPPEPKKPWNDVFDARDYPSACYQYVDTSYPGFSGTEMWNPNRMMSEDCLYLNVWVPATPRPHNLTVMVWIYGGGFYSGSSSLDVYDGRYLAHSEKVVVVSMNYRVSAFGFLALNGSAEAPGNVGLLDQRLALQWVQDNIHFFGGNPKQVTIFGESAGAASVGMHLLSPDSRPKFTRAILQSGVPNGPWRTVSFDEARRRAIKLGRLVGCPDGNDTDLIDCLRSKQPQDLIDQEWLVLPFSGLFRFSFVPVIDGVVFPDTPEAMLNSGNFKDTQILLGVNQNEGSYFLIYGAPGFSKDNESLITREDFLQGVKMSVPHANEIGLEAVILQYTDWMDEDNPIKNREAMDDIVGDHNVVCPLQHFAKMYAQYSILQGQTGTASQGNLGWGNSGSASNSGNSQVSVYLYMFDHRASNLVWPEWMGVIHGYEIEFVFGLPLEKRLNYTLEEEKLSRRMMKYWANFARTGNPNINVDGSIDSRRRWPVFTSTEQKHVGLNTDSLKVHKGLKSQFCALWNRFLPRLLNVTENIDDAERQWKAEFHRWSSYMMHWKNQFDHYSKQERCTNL

Take `CN1CCN(c2ccc(C(=O)/C=C/c3ccc(F)c(C(F)(F)F)c3)cc2)CC1` [Compound 2k, (E)-3-(4-fluoro-3-(trifluoromethyl)phenyl)-1-(4-(4-methylpiperazin-1-yl)phenyl)prop-2-en-1-one]: the remaining activity at 10 µM on AChE [1] (mean ± SD) came to 46.9 ± 2.58%; on BChE, 61.8 ± 5.54%; on MAO-A, 96.4 ± 3.03%. The midpoint of inhibition in data set [2], the IC50 at 72 h, lay at 19.9 µM. Further, the “Residual activity of MAO-B after dialysis” value (“Residual activity of MAO-B” below) on MAO-B [3] turned out to be 80.26%. Moreover, the “Reversibility of MAO-B inhibition” value on MAO-B [3] (dialysis method) is “reversible”. Moreover, at MAO-B [3] (setting [8]), the remaining activity at 1.16 µM worked out at 14.6%. Further, on AChE [4], the “Inhibition pattern for AChE” value is given as “mixed type”. Moreover, the IC50 against MAO-A was greater than 40 µM.
At AChE [1] (mean ± SD), `CN1CCN(c2ccc(C(=O)/C=C/c3cc(Br)ccc3F)cc2)CC1` [Compound 2n, (E)-3-(5-bromo-2-fluorophenyl)-1-(4-(4-methylpiperazin-1-yl)phenyl)prop-2-en-1-one] showed an IC50 of 4.32 ± 0.39 µM. For the same compound, the half-maximal inhibitory concentration (IC50) at 72 h in data set [2] turned out to be 62 µM. Moreover, the “Inhibition pattern for AChE” value at AChE [4] was “mixed type”. Besides, the “Residual Activities at 10 μM (%) BChE” value on BChE (10 μM compound, mean ± SD) stood at 43.21 ± 2.88%.
Turning to `COc1ccc(/C=C/C(=O)c2ccc(N3CCN(C)CC3)cc2)c(C(F)(F)F)c1` [Compound 2p, (E)-3-(4-methoxy-2-(trifluoromethyl)phenyl)-1-(4-(4-methylpiperazin-1-yl)phenyl)prop-2-en-1-one], the remaining activity at 10 µM at AChE [1] (mean ± SD) amounted to 37.8 ± 7.64%; at MAO-B [5], 15 ± 3.93%; at BChE it was 28.9 ± 4.08%; at MAO-A, 44.5 ± 3.31%. For the same compound, on AChE [1], the “SI (ChE)” value came out at 1.06. Besides, at MAO-B [5], the “SI (MAO)” value was found to be 3.06. Also, the IC50 on MAO-B [5] came to 2.18 ± 0.01 µM; on MAO-A, 6.67 ± 0.63 µM.
Consider `CN1CCN(c2ccc(C(=O)/C=C/c3ccc(F)cc3F)cc2)CC1` [Compound 2q, (E)-3-(2,4-difluorophenyl)-1-(4-(4-methylpiperazin-1-yl)phenyl)prop-2-en-1-one], for which the remaining activity at 10 µM on AChE [1] (mean ± SD) was found to be 33.78 ± 0.27%; at MAO-B [5] it was 13.1 ± 2.06%; at BChE, 55.3 ± 0.68%; on MAO-A, 72.7 ± 3.31%. Besides, the “SI (ChE)” value on AChE [1] was determined as 1.71. For the same compound, the “SI (MAO)” value on MAO-B [5] is 5.45. Moreover, the IC50 at MAO-B [5] came out at 3.03 ± 0.13 µM; on MAO-A, 16.5 ± 1.75 µM.
For the compound `NCCNC(=O)c1ccc(Cl)cn1` [Lazabemide, reference compound], the “Residual activity of MAO-B” value on MAO-B [3] is reported as 98.78%. Also, on MAO-B [3] (setting [8]), the remaining activity at 0.22 µM was found to be 20.5%.
With `CN(C)c1ccc(/C=C/C(=O)c2ccc(N3CCOCC3)cc2)cc1` [MO5], the Ki at AChE [6] is 2.52 µM.
Consider `O=C(/C=C/c1ccc(Br)cc1)c1ccc(N2CCOCC2)cc1` [MO9], for which the Ki on AChE [6] is 7.04 µM.
Regarding `O=C(/C=C/c1ccc(F)cc1)c1ccc(N2CCNCC2)cc1` [PC10], on MAO-B [7], the “SI (MAO)” value is 48.3.
As for `O=C(/C=C/c1ccc(C(F)(F)F)cc1)c1ccc(N2CCNCC2)cc1` [PC11], the “SI (MAO)” value on MAO-B [7] is recorded as 49.2.
`C#CCN(C)Cc1ccccc1` [Pargyline, reference compound]: the “Residual activity of MAO-B” value at MAO-B [3] was 24.88%.
